# Results taken from ChEMBL document CHEMBL1148105, “Bioactive metabolites from a marine-derived strain of the fungus Emericella variecolor” (2002).
# Columns and labels:
# Assay type in all cases: functional
# Enterococcus faecalis = test: Antimicrobial activity against Enterococcus faecalis
# Staphylococcus aureus = test: Antimicrobial activity against Staphylococcus aureus
# Escherichia coli = test: Antimicrobial activity against Escherichia coli
# Proteus sp. = test: Antimicrobial activity against Proteus sp.; details: Proteus sp. (in: enterobacteria)
# Bacillus subtilis = test: Antimicrobial activity against Bacillus subtilis
compound,measurement,setting,value
C=C(C)[C@H]1COc2c(C)cc3oc4c(C[C@H](OC=O)C(C)(C)O)ccc(O)c4c(=O)c3c2[C@@H]1O [VARIXANTHONE],MIC,Enterococcus faecalis,50 mg/L
same,MIC,Staphylococcus aureus,12.5 mg/L
same,MIC,Escherichia coli,12.5 mg/L
same,MIC,Proteus sp.,12.5 mg/L
same,MIC,Bacillus subtilis,12.5 mg/L
